Test results from ChEMBL document CHEMBL1201862, “PubChem BioAssay data set” (2004).
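Five compound concentrations were applied to cells in 96-well plates for 48 hours; endpoints were derived by simple linear interpolation of the resulting dose-response curve. At the GI50, growth is halved.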 Calls of active or inactive are those of the source. Cut-off read from the data, not from the text of the source: active = GI50 up to about 1.1 µM and inactive = higher.

Legend:
Experiment in all cases: growth of human tumour cells (NCI), 48 h
[1] = system: ACHN
[2] = system: CAKI-1
[3] = system: DMS-273
[4] = system: HCC 2998
[5] = system: HL-60
[6] = system: IGROV-1
[7] = system: KM-20L2
[8] = system: M14
[9] = system: M19-MEL
[10] = system: MOLT-4
[11] = system: NCI-H522
[12] = system: OVCAR-3
[13] = system: SF-268
[14] = system: SF-295
[15] = system: SN12C
[16] = system: SNB-75
[17] = system: SR
[18] = system: SW-620
[19] = system: U-251
[20] = system: KM12

Measured: GI50

CC(C(=O)n1nnc2ccccc21)N(c1ccccc1)c1ccccc1 (stereo not drawn)
inactive: [1] > 100 µM | [2] > 100 µM | [3] 91.6 µM | [4] > 100 µM | [5] 45.1 µM | [6] > 100 µM | [7] > 100 µM | [8] > 100 µM | [9] > 100 µM | [10] 99.5 µM | [11] 45.5 µM | [12] 66.7 µM | [13] > 100 µM | [14] > 100 µM | [15] > 100 µM | [16] 69.5 µM | [17] 78.3 µM | [18] > 100 µM | [19] 43.5 µM

CON(C)C(=O)C(Cc1ccccc1)NC(=O)OCc1ccccc1 (stereo not drawn)
inactive: [1] > 100 µM | [2] > 100 µM | [3] > 100 µM | [4] > 100 µM | [5] > 100 µM | [6] > 100 µM | [7] > 100 µM | [20] > 100 µM | [8] > 100 µM | [9] > 100 µM | [10] > 100 µM | [11] 58.6 µM | [12] > 100 µM | [13] > 100 µM | [14] > 100 µM | [15] > 100 µM | [16] 33.3 µM | [17] > 100 µM | [18] > 100 µM | [19] > 100 µM

NS(=O)(=O)c1cc2c(cc1Cl)NC(C(=O)NNC(=O)c1ccncc1)=NS2(=O)=O
inactive: [1] > 100 µM | [2] > 100 µM | [3] > 100 µM | [4] > 100 µM | [5] > 100 µM | [6] > 100 µM | [7] > 100 µM | [20] > 100 µM | [8] > 100 µM | [9] > 100 µM | [10] > 100 µM | [11] > 100 µM | [12] > 100 µM | [13] > 100 µM | [14] > 100 µM | [15] > 100 µM | [16] > 100 µM | [17] > 100 µM | [18] > 100 µM
